The values that follow are results of earlier work, collected in US12708515B2, “Valved devices, treatments and methods to restore tissue elastic recoil” (priority 2021, dated 2026).

The test system of data set [1] is E. coli. To be noted: cysteine terminated peptide; second value of the pair.
For data set [2], the system named is E. coli and E. faecalis. To be noted: physiologically relevant conditions.

Regarding LasioglossinIII, the anti-biofilm in data set [1] is on record as 40% (anti-biofilm). The “antimicrobial activity of coated catheters” value in data set [2] is “potent antimicrobial activity”.
